Experimental data reported in patent US11891401B2, “Solid forms of N-(4-fluoro-3-(6-(3-methylpyridin-2-yl)-[1,2,4]triazolo[1,5-a]pyrimidin-2-yl)phenyl)-2,4-dimethyloxazole-5-carboxamide” (NOVARTIS AG, priority 2018, dated 2024).
≈ marks a conversion by molar mass, not a printed value.

How the values were obtained:
Format in all cases: physicochemical
[1] = Solid-state physical stability: form change by XRPD after stress storage; details: for Bulk (XRPD): Solid state
Experimental: (§1) Compound I, Compound I fumaric acid co-crystals and amorphous Compound I fumaric acid samples (10 mg) were placed in an open vial at 50° C./75% RH and 80° C./75% RH chamber for one week. A same amount of sample was placed in a closed vial at 50° C. and 80° C. chamber for 1 week. The samples were exposed to 100 k Lux light for 12 h at 25° C. Solids were examined by XRPD for physical stability determination and by UPLC for chemical stability determination. The color of the samples was evaluated by visual observation. Table 5 compares the stability of Compound I and its various solid forms.

[2] = Crystal form after grinding, compression and wet granulation; details: compression and wet granulation (water and ethanol), listed as free form hydrate
[3] = Solid-state chemical stability: degradation products by UPLC/HPLC after stress storage; details: for DP % (Degradation Product), Bulk (UPLC): Solid state
Experimental: as §1

[4] = Form after storage at 92% RH; details: 24 hrs
[5] = Dynamic Vapor Sorption (DVS) moisture absorption / hygroscopicity; details: for solid form after DVS: after DVS testing
[6] = Solubility in various media at 25° C. after 24 hours equilibration (UPLC); details: for final pH of the sample (in parentheses): after 24 hours equilibration
[7] = Form after degradation at 160° C.
[8] = 50° C., 50° C./75& RH, 80° C. and 80° C./75% RH for one week
[9] = 1 week 50° C., closed container
[10] = 1 week 80° C., closed container

With `Cc1nc(C)c(C(=O)Nc2ccc(F)c(-c3nc4ncc(-c5ncccc5C)cn4n3)c2)o1` [Free Form, N-(4-fluoro-3-(6-(3-methylpyridin-2-yl)-[1,2,4]triazolo[1,5-a]pyrimidin-2-yl)phenyl)-2,4-dimethyloxazole-5-carboxamide] the “form change in bulk” value [1, 8] was “form changes were noticed”, the “form obtained upon exposure to 75% RH humidity” value ([1]; 75% RH at both temperatures (50° C. and 80° C.), one week) was “a dihydrate was obtained” and the “Bulk (XRPD)” value [1, 9] was “no change”. For the same molecule, the “Bulk (XRPD)” value ([1]; 1 week 50° C./75% r.h.) was “change”, the “Bulk (XRPD)” value [1, 10] was “change” and the form observed ([1]; under 50° C./75% RH) was “mixture of the free form hydrate and anhydrous modification”. The “crystal form after grinding, compression and wet granulation” value [2] was “converted to a different hydrate or a hydrate mixture”, the “chemical stability in bulk” value [3, 8] was “chemically stable” and the “stability upon exposure to light” value ([3]; 1200 kLuxh light for 12 hrs) was “stable”. For the same molecule, the “DP % (Degradation Product), Bulk (UPLC)” value [3, 9] was 0.6%, the “DP % (Degradation Product), Bulk (UPLC)” value ([3]; 1 week 50° C./75% r.h.) was 0.6% and the “DP % (Degradation Product), Bulk (UPLC)” value [3, 10] was 0.6%. For the same molecule, the “DP % (Degradation Product), Bulk (UPLC)” value ([3]; 1 week 80° C./75% r.h.) was 0.6%, the “DP % (Degradation Product), Amber vial (HPLC)” value ([3]; Xenon light (approx. 1200 kLuxh), amber vial) was 0.8% and the “DP % (Degradation Product), Clear vial (HPLC)” value ([3]; Xenon light (approx. 1200 kLuxh), clear vial) was 0.6%. The “form after storage at 92% RH” value ([4]; listed as Compound I free form) was “changes into a dihydrate”, the “form after storage at 92% RH” value ([4]; listed as free form hydrate) was “dihydrate” and the “solid form after DVS” value ([5]; listed as Compound I free form) was “changes into a dihydrate”. For the same molecule, the “solid form after DVS” value ([5]; listed as free form hydrate) was “form change that is likely a dihydrate”, the “moisture absorption by DVS” value ([5]; at 25° C., RH not stated) was 8.9% and the hygroscopicity ([5]; by DVS, listed as free form hydrate) was “hygroscopic”. For the same molecule, the “final pH of the sample (in parentheses)” value ([6]; 0.01N HCl pH 2.0) was 2.10, the solubility ([6]; 0.1N HCl pH 1.0, 25° C., 24 hours equilibration) was 232 µg/mL (≈ 523 µM) and the “final pH of the sample (in parentheses)” value ([6]; 0.1N HCl pH 1.0) was 1.00. The solubility ([6]; FaSSIF pH 6.5, 25° C., 24 hours equilibration) was 4 µg/mL (≈ 9.02 µM), the “final pH of the sample (in parentheses)” value ([6]; FaSSIF pH 6.5) was 6.31 and the solubility ([6]; FeSSIF pH 5.8, 25° C., 24 hours equilibration) was 6 µg/mL (≈ 13.5 µM). For the same molecule, the “final pH of the sample (in parentheses)” value ([6]; FeSSIF pH 5.8) was 5.73, the solubility ([6]; SGF pH 2.0, 25° C., 24 hours equilibration) was 29 µg/mL (≈ 65.4 µM) and the “final pH of the sample (in parentheses)” value ([6]; SGF pH 2.0) was 1.99. The solubility ([6]; acetate buffer pH 4.7, 25° C., 24 hours equilibration) was 2 µg/mL (≈ 4.51 µM), the “final pH of the sample (in parentheses)” value ([6]; acetate buffer pH 4.7) was 4.68 and the solubility ([6]; borate buffer pH 10.0, 25° C., 24 hours equilibration) was 2 µg/mL (≈ 4.51 µM). The “final pH of the sample (in parentheses)” value ([6]; borate buffer pH 10.0) was 8.58, the solubility ([6]; phosphate buffer pH 6.8, 25° C., 24 hours equilibration) was 1 µg/mL (≈ 2.26 µM) and the “final pH of the sample (in parentheses)” value ([6]; phosphate buffer pH 6.8) was 6.65. The solubility at 24 h ([6]; simulated gastric fluid, thermodynamic from solid, 0.01N HCl pH 2.0, 25° C., 24 hours equilibration) was 17 µg/mL (≈ 38.3 µM), the solubility ([6]; water, 25° C., 24 hours equilibration) was 9 µg/mL (≈ 20.3 µM) and the “final pH of the sample (in parentheses)” value ([6]; water) was 8.18. For the same molecule, the “form after degradation at 160° C.” value [7] was “converts to an amorphous form”.
